Measurements reported in patent US5814640A, “Method of treating gastrointestinal malignancies” (Montefiore Medical Center, priority 1997, dated 1998).

Assays:
HT-29 = experiment: Cytokinetic studies (cell cycle distribution by flow cytometry), HT-29; type: cell-based, human
Experimental: Cells were cultured in RPMI 1640 with 10% fetal calf serum. Doubling times for these cell lines are 18 and 25 hours.
The DNA content of propidium-iodide stained nuclei was measured by flow cytometry. Cells in early exponential growth were incubated with or without drug, trypsinized and washed twice in PBS. A total of 10^6 viable cells, as determined by trypan blue exclusion, were permeabilized in sucrose-citrate-DMSO buffer as described by Vindelov et al., enucleated with trypsin and incubated with RNAse. Stripped nuclei were stained with propidium iodide at a final concentration of 2.5 ug/ml. Correlated dual parameter measurements of DNA content (from propidium-iodide red fluorescence excited at 488 nm) versus forward angle light scatter were performed using an EPICS C flow cytometer equipped with a 5W ultraviolet enhanced argon ion laser. Histograms consisting of a minimum of 10,000 nuclei were analyzed off-line with an EPICS C to RSX-11M conversion program (EPICOPY) and subsequently analyzed with ROMP and ROC3D programs rewritten for a DEC 11/73 computer. Cell cycle analysis for the compartmental boundaries and number of cells in the G1, S, and G2M phases was performed on ROMP-readable files using either a multiple gaussian fitting routine developed by Dean et al. or, for the perturbed histograms, a parametric method based on multiple broadened rectangles. […]

SW480 = experiment: Cytokinetic studies (cell cycle distribution by flow cytometry), SW480; type: cell-based, human
Experimental: Cells were cultured in RPMI 1640 with 10% fetal calf serum.
The DNA content of propidium-iodide stained nuclei was measured by flow cytometry. Cells in early exponential growth were incubated with or without drug, trypsinized and washed twice in PBS. A total of 10^6 viable cells, as determined by trypan blue exclusion, were permeabilized in sucrose-citrate-DMSO buffer as described by Vindelov et al., enucleated with trypsin and incubated with RNAse. Stripped nuclei were stained with propidium iodide at a final concentration of 2.5 ug/ml. Correlated dual parameter measurements of DNA content (from propidium-iodide red fluorescence excited at 488 nm) versus forward angle light scatter were performed using an EPICS C flow cytometer equipped with a 5W ultraviolet enhanced argon ion laser. Histograms consisting of a minimum of 10,000 nuclei were analyzed off-line with an EPICS C to RSX-11M conversion program (EPICOPY) and subsequently analyzed with ROMP and ROC3D programs rewritten for a DEC 11/73 computer. Cell cycle analysis for the compartmental boundaries and number of cells in the G1, S, and G2M phases was performed on ROMP-readable files using either a multiple gaussian fitting routine developed by Dean et al. or, for the perturbed histograms, a parametric method based on multiple broadened rectangles.

colorectal cancer = details: cited from earlier work
[1] = 5-fluorouracil 50-500 uM, 24 hour incubation
[2] = alone or in combination, data not shown

In the case of `O=c1[nH]cc(F)c(=O)[nH]1` [5-fluorouracil], the “G2M compartment, dose response” value (HT-29; [1]) is reported as “nearly complete depletion of G2M”, the “time of G2M depletion from start of incubation” value (HT-29; time course, 5-fluorouracil 50 uM, alpha-2a-interferon 500 U/ml) is reported as ≤ 7 h and the “G2M compartment, dose response” value (SW480; [1]) is reported as “nearly complete depletion of G2M”. For the same molecule, the “accumulation of cells in S and G2M” value (SW480; 24 hours, alone or in combination, data not shown) was “concomitant decrease in the accumulation of cells in S and G2M at 24 hours”, the “block in G0/G1” value (SW480; [2]) was “prolongation of the block in G0/G1 to 24 hours” and the “effects on cell cycle distribution compared with HT-29” value (SW480; [2]) was “qualitatively identical effects”. For the same molecule, the “median survival of treated patients” value (colorectal cancer; compared with untreated controls) was “no better than that of untreated controls” and the remissions in patients (colorectal cancer; disseminated colorectal cancer) was 15-35 % of patients.
